# Measurements from paper PMC5881471, “CDK2 inhibitors as candidate therapeutics for cisplatin- and noise-induced hearing loss” (The Journal of Experimental Medicine, 2018).
# Columns and labels:
# in vitro = assay: in vitro; parameters: CellTiter-Glo cell viability, compound alone; conditions: mouse, hei-oc1 cells; compound alone; read-out: LD50 (μM) in HEI cells
# From the text: For this screen, caspase-3 cleavage was chosen as the endpoint indicating cisplatin-induced cell death, as it allowed the inhibition of cell death to be monitored at the level of any intracellular molecular target upstream of caspase-3 cleavage in the HEI-OC1 cell line ([Kalinec et al., 2003]; [Kim et al., 2010]). […] This screen has been described in detail elsewhere ([Teitz et al., 2016]). Assays were first optimized at the bench. Optimized aspects included the number of cells to be plated (1,600 cells/well), the cisplatin concentration (50 µM, based on the dose–response curve), the incubation time (22 h at 33°C in 10% CO2), and the concentration of pifithrin-α (17 µM). The Caspase-Glo 3/7 assay (Promega), which enables the measurement of light emitted as the result of caspase cleavage and is suitable for HTS, was used. The linearity of the Caspase-Glo 3/7 assay was validated, and it was verified that 0.5% DMSO had no effect on the cell death kinetics ([Hall et al., 2014]). Compound toxicity was tested by cell viability assay CellTiter-Glo (Promega) with compound alone. The Caspase-Glo 3/7 assay was then tested for reproducibility in the St. Jude robotic systems in 384-well plates (white, solid-bottom, tissue culture–treated, polystyrene plates; Corning). By using a pin tool, test compounds dissolved in DMSO were added to the screen to a final concentration of 8 µM, and cisplatin solution in PBS was added 2 min later to each well to a final concentration of 50 µM (in <0.5% DMSO; Fig. S1 A). The cells were incubated with the test compounds and cisplatin for 22 h at 33°C in 10% CO2, with the medium being as previously described ([Kalinec et al., 2003]); no γ IFN was added to slow the cells’ growth rate and to mimic as closely as possible the conditions of postmitotic, nondividing sensory epithelial (organ of Corti) cells. The 384-well plates were shaken and centrifuged after compound addition to enhance the reprod  Figure 1. […] (A) Screening of a bioactive compound library of 4,385 unique compounds, including 845 FDA-approved drugs, in HEI-OC1 cells. Cells treated with 50 µM cisplatin (red dots) were assigned 100% caspase-3/7 activity. Cells not treated with cisplatin, i.e., those grown in medium only (black dots) were assigned 0% caspase-3/7 activity. Each compound was added to a final concentration of 8 µM in the presence of 50 µM cisplatin (cyan dots). The cell-based screen mean Z′ was 0.75, the signal window was 12, and the signal fold change was 4.9. […] The caspase-3/7 IC50 activity and structure are indicated for each compound. Error bars: SEM. […] Phalloidin labels the HCs. (I–K) OHC survival (percentage; mean ± SEM) after treatment with various concentrations of compounds and/or cisplatin (CIS). The number of cochlear explants analyzed is indicated in each bar. *, P < 0.05 and **, P < 0.01 by one-way ANOVA followed by a Bonferroni comparison. We identified 177 hits that reduced cisplatin-induced caspase-3/7 activity by 60% or more. These compounds were further validated and characterized by dose-responsive analysis for potency and toxicity in HEI-OC1 cells; toxicity was assessed by a cell viability assay (CellTiter-Glo) with the test compounds alone (Fig. 1, B–D; and Fig. S1, E–K). The top 10 hits in this screen (with IC50 values in the HEI-OC1 cells of 0.04–6.2 µM) and their protective properties, as investigated in this study, are summarized in Table S1. The FDA has approved three of the compounds (leflunomide, [compound left out], and olsalazine sodium) for treating other medical conditions.
# CDK2 = CDK2 (Mus musculus, UniProt P97377); assay: immunoprecipitated CDK2 kinase assay, […]histone H1 substrate; cisplatin-treated cells ([…] from untreated cells); format: biochemical
Structure (SMILES),CC50 at 22 h (in vitro),IC50 (CDK2)
CCOc1cc2ncc(C#N)c(Nc3ccc(F)c(Cl)c3)c2cc1NC(=O)/C=C/CN(C)C [Pelitinib],> 40 µM,
NS(=O)(=O)c1ccc(N=Nc2c(O)[nH]c3ccc(Br)cc23)cc1 [CDK2 inhibitor II],> 40 µM,
CCCCCC[C@H]1C(=O)O[C@H](C)[C@H](NC(=O)c2cccc(NC=O)c2O)C(=O)O[C@@H](C)[C@@H]1OC(=O)CC(C)C [Antimycin A],> 10 µM,
O=C(O)c1cc(/N=N/c2ccc(O)c(C(=O)O)c2)ccc1O [Olsalazine sodium],> 40 µM,
O=c1cc(CN2CCOCC2)occ1OCCCCCSc1ccnc2cc(C(F)(F)F)ccc12 [EHT1864],> 20 µM,
O=C1Cc2c([nH]c3ccc(Br)cc23)-c2ccccc2N1 [kenpaullone],> 40 µM,1.7 ± 0.9 µM
CC[C@H](CO)Nc1nc(NCc2ccccc2O)c2ncn(C(C)C)c2n1 [Olomoucine II],> 40 µM,
Cc1oncc1C(=O)Nc1ccc(C(F)(F)F)cc1 [Leflunomide],> 40 µM,
